US7560473B2 (Institute of Pharmacology and Toxicology Academy of …, priority 2001, dated 2009)
Marks after values point to notes of the source that are not given here.

How the values were obtained:
[1] = tested on: outward potassium currents in smooth muscle cells derived from intrapulmonary arteries; assay: Whole cell recording of outward potassium currents in intrapulmonary arterial SMCs and glibenclamide antagonism; type: cell-based, Wistar rats
Experimental: Effects of Compound 1 on Potassium Currents in Isolated Intrapulmonary arterial SMCs and Glibenclamide Antagonism
The outward potassium currents were recorded in smooth muscle cells derived from intrapulmonary arteries of normotensive rats. Cells were sealed, clamped at −70 mV and depolarized to +50 mV at an increasing step of 10 mV with 100 ms duration. After application of compound 1 at the concentration of 10 μmol L^−1, the amplitude of the currents in 5/8 cells was increased to 115.4±2.8% compared with control recorded before compound application (P<0.01 n=5). While in the presence of both compound 1 and glibenclamide at the concentration of 10 μmol L^−1 and 30 μmol L^−1 respectively, the amplitude of the outward potassium currents in 7/7 cells was detected to be 83.1±8.3% of control, which was decreased compared with the presence of compound 1 only (P<0.01 n=7).
2. Preparation of smooth muscle cells from intrapulmonary arteries: Male Wistar rats were killed by decapitation. The intrapulmonary arteries were isolated and moved quickly into physiological salt solutions (PSS, 4° C.) Then the arteries were cut longitudinally and cut into small segments after scraping off the endothelium gently with a cotton swab. The fragments were then incubated at 37° C. in Ca^2+-free PSS for 20 to 30 minutes. […]

[2] = tested on: outward potassium currents of rat tail arterial SMCs; assay: Whole cell recording of outward potassium currents in rat tail arterial SMCs; type: cell-based, Wistar rats; conditions: outward potassium current amplitude before compound application, same cells; X ± SD n = 5
Text: Biological activity experiments 6. The effects of novel compounds on potassium currents in isolated arterial vascular smooth muscle cells (SMCs).
The outward currents were, elicited in rat tail arterial SMCs by superfusing extracellular solution under whole cell recording configuration that the depolarizing pulse were applied from −30 mV to +100 mV with the holding potential of −40 mV in 100 ms, 10 mV clamp steps, a frequency of 5 KHz. The compounds were applied in the bath at the concentrations of 100 μmol L^−1. The amplitude of the outward potassium currents was recorded before and after compound application Values were expressed as means±SD. Statistical significance between two groups was evaluated by student's t-test for paired data * P<0.05 **P<0.01 vs control.
1. Preparation of single smooth muscle cells from rat tail arteries: Male Wistar rats (200-250 g) were killed by exsanguination. The tail artery was dissected out and transferred into cold physiological salt solution (PSS) of the following composition (in mM): NaCl 118.3, KCl 4.7, KH2PO4 1.2, MgSO4 1.2, NaHCO3 25.0, CaCl2 2.5, EDTA 0.026 and Glucose 5.0 pH7.4. With the use of a dissecting microscope, the connective tissues were removed and the artery was cut open longitudinally. Endothelium was removed carefully with a cotton swab then the artery was cut into segments with 1 mm long and placed in 4° C. the extracellular solution containing (in mM) NaCl 130, KCl 5, MgCl2 1.2, HEPES 10, Glucose 10, pH7.2 for 20 min. After this incubation, the medium was changed to enzyme solution which was composed of collagenase I (1 mg ml^−1), papain (5 mg ml^−) and bovine serum albumin (2 mg ml^−1). The tissues, were incubated in this solution for 40 min, and then rinsed three times triturated using a fire-polished Pasteur pipette until the medium turned cloudily. The cell suspension was stored in the refrigerator at 4° C.
3. Whole cell recordings: A bath dish with the smooth muscle cells (SMCs) attached and superfused with the extracellular solution at a flow rate of 2 ml min^−1 was mounted onto the stage of an inverted-phase contrast microscope. The microelectrodes having a resistance of (5-8 MΩ) were made from boroscilicate thin-wall glass capillaries, using an automatic multiple-stage, electronic puller (PP830 Japan) and then heat-polished. After establishing a high resistance seal, the patch membrane was disrupted by negative pressure. A commercial patch clamp amplifier (Axon 200B) was used to generate and apply voltages and sample current signals from the cell.

[3] = tested on: SHRsp; assay: Prophylaxis and treatment of SHRsp cerebral apoplexy; type: in vivo, rats; conditions: for Survival time: control 4.6 ± 3.8; for Survival time / Period needed for onset of cerebral apoplexy: means ± SD; for Period needed for onset of cerebral apoplexy: control 48.3 ± 7.4; for Death rate of cerebral apoplexy / Rate of cerebral apoplexy: n 12; for Death rate of cerebral apoplexy: control 50.0; for Rate of cerebral apoplexy: control 83.3
Experimental: Biological activity experiment 8 the prophylaxis and treatment of cerebral apoplexy with compound 1 of formula Ia
The methods of biological activity experiments were carried out as follows: Desired concentration of compound 1 was prepared with distilled water, while desired concentration of nimodipine was prepared with market available Jinglongyu^T oil. 30 male and 30 female SHRsp (10 weeks old, 120-180 g) were purchased from the vascular disease research center of Academy of Military Medical Science. All SHRsp were divided randomly into five groups based on blood pressure, body weight and sex: control group (fed with equal amount of Jinglongyu^T oil), […], […], […], and 4.0 mg.kg^−1d^−1 nimodipine treated group. Each group contained 12 animals and 4-5 animals were fed in a cage. The feedstaff (containing 23-24% protein) was purchased from experimental animal center of Academy of Military Medical Science. The animals were fed with tap water containing 1% NaCl to accelerate the onset of cerebral apoplexy. 12 normal WKY rats (with the same age and sex with the above) were selected as control, and fed with tap water and the same feedstuff. When reached 11 weeks old, the animals were fed with drugs for experiments.

CC(C)NC(C)(C)C(C)C [compound 1, N-(1-methylethyl)-2,3-dimethyl-2-butylamine]
amplitude of the outward potassium currents compared with control ([1]; compound 1 10 μmol L^−1, 5/8 cells, n=5): 115.4±2.8%
amplitude of the outward potassium currents, of control ([1]; compound 1 10 μmol L^−1 in the presence of glibenclamide 30 μmol L^−1, 7/7 cells, n=7): 83.1±8.3%
Currents, Control (before compound application) [2]: 0.41 ± 0.08 nA
Survival time ([3]; 0.25 mg · kg^−1d^−1 fed): 7.2 ± 5.3 days
Period needed for onset of cerebral apoplexy ([3]; 0.25 mg · kg^−1d^−1 fed): 58.6 ± 14.1 days
Death rate of cerebral apoplexy ([3]; 0.25 mg · kg^−1d^−1 fed): 27.3%
Rate of cerebral apoplexy ([3]; 0.25 mg · kg^−1d^−1 fed): 72.7%
Survival time ([3]; 1 mg · kg^−1d^−1 fed): 10.2 ± 4.1 days
Period needed for onset of cerebral apoplexy ([3]; 1 mg · kg^−1d^−1 fed): 60.8 ± 18.9 days
Death rate of cerebral apoplexy ([3]; 1 mg · kg^−1d^−1 fed): 20.0%
Rate of cerebral apoplexy ([3]; 1 mg · kg^−1d^−1 fed): 40.0* %
Survival time ([3]; 4 mg · kg^−1d^−1 fed): 11.8 ± 3.2 days
Period needed for onset of cerebral apoplexy ([3]; 4 mg · kg^−1d^−1 fed): 68.6 ± 16.5 days
Death rate of cerebral apoplexy ([3]; 4 mg · kg^−1d^−1 fed): 8.3* %
Rate of cerebral apoplexy ([3]; 4 mg · kg^−1d^−1 fed): 33.3* %
nerve symptom of cerebral apoplexy (in words) ([3]; SHRsp): significantly improve the nerve symptom
